Reference: PubChem BioAssay AID1919017 (Molecular Pharmacology Branch, DTP, NCI, 2023)

Test system: SW1271 complex spheroids with HUVEC/MSC, growth, % test/control
Assay: Anticancer human tumor SW1271 cell line growth inhibition [AhR];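 also: spheroids exposed to agents for 7 days before readout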
Settings: for IC50: curve of first compound; for viability, T/C: stronger effect = lower value
In short: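 Complex tumor spheroids co-cultured with HUVEC and human MSC stroma; AhR antagonists tested in combination with standard-of-care and investigational agents. Top concentration at or near clinical Cmax (else 10 microM), half-log dilutions; growth expressed as percent test/control.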

[1] = second compound 0.1 µM, first compound 0.0316 µM
[2] = second compound 0.1 µM, first compound 0.1 µM
[3] = second compound 0.1 µM, first compound 0.316 µM
[4] = second compound 0.1 µM, first compound 1 µM
[5] = second compound 0.316 µM, first compound 0.0316 µM
[6] = second compound 0.316 µM, first compound 0.1 µM
[7] = second compound 0.316 µM, first compound 0.316 µM
[8] = second compound 0.316 µM, first compound 1 µM
[9] = second compound 1 µM, first compound 0.0316 µM
[10] = second compound 1 µM, first compound 0.1 µM
[11] = second compound 1 µM, first compound 0.316 µM
[12] = second compound 1 µM, first compound 1 µM
[13] = second compound 3.16 µM, first compound 0.0316 µM
[14] = second compound 3.16 µM, first compound 0.1 µM
[15] = second compound 3.16 µM, first compound 0.316 µM
[16] = second compound 3.16 µM, first compound 1 µM
[17] = second compound 10 µM, first compound 0.0316 µM
[18] = second compound 10 µM, first compound 0.1 µM
[19] = second compound 10 µM, first compound 0.316 µM
[20] = second compound 10 µM, first compound 1 µM
[21] = second compound 0.1 µM, first compound 3.16 µM
[22] = second compound 0.1 µM, first compound 10 µM
[23] = second compound 0.316 µM, first compound 3.16 µM
[24] = second compound 0.316 µM, first compound 10 µM
[25] = second compound 1 µM, first compound 3.16 µM
[26] = second compound 1 µM, first compound 10 µM
[27] = second compound 3.16 µM, first compound 3.16 µM
[28] = second compound 3.16 µM, first compound 10 µM
[29] = second compound 10 µM, first compound 3.16 µM
[30] = second compound 10 µM, first compound 10 µM
[31] = second compound 0.1 µM, first compound 0.00949 µM
[32] = second compound 0.1 µM, first compound 0.03 µM
[33] = second compound 0.1 µM, first compound 0.0949 µM
[34] = second compound 0.1 µM, first compound 0.3 µM
[35] = second compound 0.316 µM, first compound 0.00949 µM
[36] = second compound 0.316 µM, first compound 0.03 µM
[37] = second compound 0.316 µM, first compound 0.0949 µM
[38] = second compound 0.316 µM, first compound 0.3 µM
[39] = second compound 1 µM, first compound 0.00949 µM
[40] = second compound 1 µM, first compound 0.03 µM
[41] = second compound 1 µM, first compound 0.0949 µM
[42] = second compound 1 µM, first compound 0.3 µM
[43] = second compound 3.16 µM, first compound 0.00949 µM
[44] = second compound 3.16 µM, first compound 0.03 µM
[45] = second compound 3.16 µM, first compound 0.0949 µM
[46] = second compound 3.16 µM, first compound 0.3 µM
[47] = second compound 10 µM, first compound 0.00949 µM
[48] = second compound 10 µM, first compound 0.03 µM
[49] = second compound 10 µM, first compound 0.0949 µM
[50] = second compound 10 µM, first compound 0.3 µM

## CC1COCCN1c1cc(-c2ccnn2C)c2ccnc(-c3ccn[nH]3)c2n1 (stereo not given) + Cc1cncc(-c2nc(NCCc3c[nH]c4ccccc34)c3ncn(C(C)C)c3n2)c1
Second compound 0.1 µM
  IC50: 413 nM
Second compound 0.316 µM
  IC50: 251 nM
Second compound 1 µM
  IC50: 653 nM
Second compound 3.16 µM
  IC50: 735 nM
Second compound 10 µM
  IC50: < 3.16 nM
Second compound 0.1 µM, first compound 0.00316 µM
  viability, T/C: 79.6%
Second compound 0.1 µM, first compound 0.01 µM
  viability, T/C: 86.7%
[1]
  viability, T/C: 70.2%
[2]
  viability, T/C: 57.4%
[3]
  viability, T/C: 58%
[4]
  viability, T/C: 39.4%
Second compound 0.316 µM, first compound 0.00316 µM
  viability, T/C: 68%
Second compound 0.316 µM, first compound 0.01 µM
  viability, T/C: 90.1%
[5]
  viability, T/C: 70.4%
[6]
  viability, T/C: 62.2%
[7]
  viability, T/C: 48%
[8]
  viability, T/C: 35.1%
Second compound 1 µM, first compound 0.00316 µM
  viability, T/C: 89.8%
Second compound 1 µM, first compound 0.01 µM
  viability, T/C: 88%
[9]
  viability, T/C: 75.3%
[10]
  viability, T/C: 63%
[11]
  viability, T/C: 62%
[12]
  viability, T/C: 44.2%
Second compound 3.16 µM, first compound 0.00316 µM
  viability, T/C: 72.2%
Second compound 3.16 µM, first compound 0.01 µM
  viability, T/C: 85.2%
[13]
  viability, T/C: 72.4%
[14]
  viability, T/C: 70.2%
[15]
  viability, T/C: 61.3%
[16]
  viability, T/C: 46%
Second compound 10 µM, first compound 0.00316 µM
  viability, T/C: 30.2%
Second compound 10 µM, first compound 0.01 µM
  viability, T/C: 35%
[17]
  viability, T/C: 36.9%
[18]
  viability, T/C: 36.2%
[19]
  viability, T/C: 35%
[20]
  viability, T/C: 24.6%

## CC1COCCN1c1cc(C2(S(C)(=N)=O)CC2)nc(-c2ccnc3[nH]ccc23)n1 (stereo not given) + Cc1cncc(-c2nc(NCCc3c[nH]c4ccccc34)c3ncn(C(C)C)c3n2)c1
Second compound 0.1 µM
  IC50: > 10000 nM
Second compound 0.316 µM
  IC50: > 10000 nM
Second compound 1 µM
  IC50: > 10000 nM
Second compound 3.16 µM
  IC50: > 10000 nM
Second compound 10 µM
  IC50: < 31.6 nM
[1]
  viability, T/C: 87.4%
[2]
  viability, T/C: 103%
[3]
  viability, T/C: 85.7%
[4]
  viability, T/C: 88.1%
[21]
  viability, T/C: 85.3%
[22]
  viability, T/C: 67.8%
[5]
  viability, T/C: 85.5%
[6]
  viability, T/C: 103%
[7]
  viability, T/C: 106%
[8]
  viability, T/C: 103%
[23]
  viability, T/C: 71.7%
[24]
  viability, T/C: 52.6%
[9]
  viability, T/C: 83.7%
[10]
  viability, T/C: 87.7%
[11]
  viability, T/C: 88.7%
[12]
  viability, T/C: 84.5%
[25]
  viability, T/C: 90.2%
[26]
  viability, T/C: 62.7%
[13]
  viability, T/C: 83%
[14]
  viability, T/C: 93%
[15]
  viability, T/C: 93.6%
[16]
  viability, T/C: 71.1%
[27]
  viability, T/C: 69.4%
[28]
  viability, T/C: 59.3%
[17]
  viability, T/C: 51.6%
[18]
  viability, T/C: 46.9%
[19]
  viability, T/C: 45.5%
[20]
  viability, T/C: 40%
[29]
  viability, T/C: 43.3%
[30]
  viability, T/C: 28.9%

## COc1ccc([C@@H](O)c2cc(-c3ncnc4cc(N5CCOCC5)ccc34)c(F)cc2Cl)nn1 + Cc1cncc(-c2nc(NCCc3c[nH]c4ccccc34)c3ncn(C(C)C)c3n2)c1
Second compound 0.1 µM
  IC50: 1850 nM
Second compound 0.316 µM
  IC50: 3900 nM
Second compound 1 µM
  IC50: 2890 nM
Second compound 3.16 µM
  IC50: 5060 nM
Second compound 10 µM
  IC50: < 31.6 nM
[1]
  viability, T/C: 82.7%
[2]
  viability, T/C: 93.6%
[3]
  viability, T/C: 83.2%
[4]
  viability, T/C: 56.7%
[21]
  viability, T/C: 47.9%
[22]
  viability, T/C: 36.7%
[5]
  viability, T/C: 87.3%
[6]
  viability, T/C: 96.7%
[7]
  viability, T/C: 75.1%
[8]
  viability, T/C: 72.7%
[23]
  viability, T/C: 52.2%
[24]
  viability, T/C: 36.9%
[9]
  viability, T/C: 91.3%
[10]
  viability, T/C: 87.3%
[11]
  viability, T/C: 93.3%
[12]
  viability, T/C: 68.2%
[25]
  viability, T/C: 50.8%
[26]
  viability, T/C: 36.3%
[13]
  viability, T/C: 81.6%
[14]
  viability, T/C: 99%
[15]
  viability, T/C: 81.9%
[16]
  viability, T/C: 70.1%
[27]
  viability, T/C: 55.8%
[28]
  viability, T/C: 43.2%
[17]
  viability, T/C: 45.5%
[18]
  viability, T/C: 43.3%
[19]
  viability, T/C: 41.5%
[20]
  viability, T/C: 36%
[29]
  viability, T/C: 22.1%
[30]
  viability, T/C: 18.1%

## Nc1ncn(C2CC(O)C(CO)S2)c(=O)n1 (stereo not given) + Cc1cncc(-c2nc(NCCc3c[nH]c4ccccc34)c3ncn(C(C)C)c3n2)c1
Second compound 0.1 µM
  IC50: > 300 nM
Second compound 0.316 µM
  IC50: > 300 nM
Second compound 1 µM
  IC50: > 300 nM
Second compound 3.16 µM
  IC50: > 300 nM
Second compound 10 µM
  IC50: < 0.949 nM
Second compound 0.1 µM, first compound 0.000949 µM
  viability, T/C: 73.1%
Second compound 0.1 µM, first compound 0.003 µM
  viability, T/C: 93.7%
[31]
  viability, T/C: 97.1%
[32]
  viability, T/C: 90.9%
[33]
  viability, T/C: 99.6%
[34]
  viability, T/C: 98.5%
Second compound 0.316 µM, first compound 0.000949 µM
  viability, T/C: 94.2%
Second compound 0.316 µM, first compound 0.003 µM
  viability, T/C: 84.2%
[35]
  viability, T/C: 81.8%
[36]
  viability, T/C: 84.8%
[37]
  viability, T/C: 101%
[38]
  viability, T/C: 90.9%
Second compound 1 µM, first compound 0.000949 µM
  viability, T/C: 93.8%
Second compound 1 µM, first compound 0.003 µM
  viability, T/C: 104%
[39]
  viability, T/C: 104%
[40]
  viability, T/C: 98.7%
[41]
  viability, T/C: 96.9%
[42]
  viability, T/C: 90.5%
Second compound 3.16 µM, first compound 0.000949 µM
  viability, T/C: 94.1%
Second compound 3.16 µM, first compound 0.003 µM
  viability, T/C: 86.4%
[43]
  viability, T/C: 86%
[44]
  viability, T/C: 82.3%
[45]
  viability, T/C: 74.2%
[46]
  viability, T/C: 78.4%
Second compound 10 µM, first compound 0.000949 µM
  viability, T/C: 45.5%
Second compound 10 µM, first compound 0.003 µM
  viability, T/C: 44.8%
[47]
  viability, T/C: 45.6%
[48]
  viability, T/C: 39.8%
[49]
  viability, T/C: 49.3%
[50]
  viability, T/C: 43.9%

## O=C(C=Cn1cnc(-c2cc(C(F)(F)F)cc(C(F)(F)F)c2)n1)NNc1cnccn1 + Cc1cncc(-c2nc(NCCc3c[nH]c4ccccc34)c3ncn(C(C)C)c3n2)c1
Second compound 0.1 µM
  IC50: 913 nM
Second compound 0.316 µM
  IC50: 2330 nM
Second compound 1 µM
  IC50: 2470 nM
Second compound 3.16 µM
  IC50: > 3000 nM
Second compound 10 µM
  IC50: < 9.49 nM
[31]
  viability, T/C: 83.3%
[32]
  viability, T/C: 103%
[33]
  viability, T/C: 87.1%
[34]
  viability, T/C: 82.4%
Second compound 0.1 µM, first compound 0.949 µM
  viability, T/C: 48.6%
Second compound 0.1 µM, first compound 3 µM
  viability, T/C: 44.6%
[35]
  viability, T/C: 88.2%
[36]
  viability, T/C: 91.9%
[37]
  viability, T/C: 88%
[38]
  viability, T/C: 74.5%
Second compound 0.316 µM, first compound 0.949 µM
  viability, T/C: 65.9%
Second compound 0.316 µM, first compound 3 µM
  viability, T/C: 45.6%
[39]
  viability, T/C: 105%
[40]
  viability, T/C: 96.6%
[41]
  viability, T/C: 97.7%
[42]
  viability, T/C: 72.2%
Second compound 1 µM, first compound 0.949 µM
  viability, T/C: 62.8%
Second compound 1 µM, first compound 3 µM
  viability, T/C: 47%
[43]
  viability, T/C: 97.7%
[44]
  viability, T/C: 88.2%
[45]
  viability, T/C: 97.5%
[46]
  viability, T/C: 87.7%
Second compound 3.16 µM, first compound 0.949 µM
  viability, T/C: 67.7%
Second compound 3.16 µM, first compound 3 µM
  viability, T/C: 53.2%
[47]
  viability, T/C: 44.4%
[48]
  viability, T/C: 48.4%
[49]
  viability, T/C: 55%
[50]
  viability, T/C: 59.3%
Second compound 10 µM, first compound 0.949 µM
  viability, T/C: 50.1%
Second compound 10 µM, first compound 3 µM
  viability, T/C: 47.7%
